In patent US20230303647A1, “CYCLIC CHEMERIN-9 DERIVATIVES” (priority 2020, published 2023):
Where a SMILES comes first, the peptide text is derived from it. Bridges are numbered along the chain shown (N, C = ends). [ ]: non-standard residue; d: D form. PEG4 = NCCOCCOCCOCCOCCC(=O)O; d(hCys) = N[C@H](CCS)C(=O)O

Tests used:
in vitro = settings: human, plasma
Procedure: Investigation of peptide stability in blood plasma was carried out as described previously. […] Samples taken at the respective time points were added to a solution of 0.1% SDS in ACN/EtOH (1:1). After incubation at −20° C. for 20 min, the supernatant was transferred to a new tube and incubated again at −20° C. for at least 3 h. The solution was filtered by centrifugation using Costar Spin-X tubes (0.22 μm) and the filtrate was analyzed by RP-HPLC on a VariTide RPC. […] Peaks were integrated and the peak containing the intact peptide was normalized to the sample taken at t=0 min (100%).

CMKLR1 [1] = target: T1, CMKLR1 (Homo sapiens, UniProt Q99788); test: Fluorescence microscopy of CMKLR1 internalization and arrestin 3 recruitment; assay type: cell-based; design: expressed in transfected cells; host or cells: HEK293; settings: HEK293 cells, 1 μM peptide
T1 sequence (Q99788 1-373): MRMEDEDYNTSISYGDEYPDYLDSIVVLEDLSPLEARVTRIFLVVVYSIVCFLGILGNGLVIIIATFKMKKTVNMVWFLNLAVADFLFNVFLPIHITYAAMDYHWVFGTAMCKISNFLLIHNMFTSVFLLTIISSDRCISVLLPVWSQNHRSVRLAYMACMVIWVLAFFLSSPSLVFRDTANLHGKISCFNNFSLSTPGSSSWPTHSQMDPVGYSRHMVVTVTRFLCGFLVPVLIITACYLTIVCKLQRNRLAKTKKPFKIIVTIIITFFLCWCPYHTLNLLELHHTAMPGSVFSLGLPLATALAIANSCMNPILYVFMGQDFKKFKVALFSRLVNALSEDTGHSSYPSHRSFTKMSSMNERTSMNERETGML
Procedure: Ibidi 15μ-slides were coated with poly D-lysine before cell seeding. Cells were washed with DPBS prior to detachment with 1 ml trypsin/EDTA. […] The cell suspension was diluted to 140,000 cells/200 μl, which were seeded. Incubation was carried out overnight at 37° C. Afterwards, cells were transiently transfected. Plasmid DNA of hCMKLR1_eYFP_GαΔ6qi4myr_pV2 (0.9 μg) and mCherry_Arr3_pcDNA3 (0.1 μg) and 8 μl Lipofectamine were separately added to 100 μl DMEM/Ham's F12 and incubated for 10 min before unification and incubation at RT for 20 min. Incubation was carried out overnight at 37° C. […] The medium was replaced by 200 μl of OptiMEM and the to status was documented. The OptiMEM was then replaced by 200 μl of 1 μM peptide in OptiMEM. Fluorophore excitation was analyzed using different filters, depending on the emission wavelength of the fluorophore and the time of exposure was adjusted to each fluorophore individually. All images were processed identically with the AxioVision software (Carl Zeiss AG, Oberkochen, Germany).
To verify the arrestin-recruitment and analyze the internalization of the CMKLR1 receptor itself, HEK293 cells were used and transiently transfected with fluorescent labeled variants of the two molecules.
FIG. 2: Internalization of CMKLR1 and arrestin 3 recruitment. HEK293 cells expressing the hCMKLR1 (green) and arrestin 3 (Arr3; red) due to transient transfection were used for the internalization studies.

CMKLR1 [2] = target: T1, CMKLR1; test: Ca2+ mobilization assay (G protein-mediated signaling)
Procedure: COS-7 cells were transfected in 75 cm^2 cell culture flasks with 12 μg of the hCMKLR1_eYFP_GαΔ6qi4myr_pV2 plasmid overnight using Metafectene Pro. Transfected cells were seeded in 96 well plates (100 μL cell suspension in DMEM+10% FBS/well) and incubated overnight. The following day, the Ca^2+-mobilization was performed as described previously. […] All experiments were performed in triplicates, each experiment was repeated at least twice. Nonlinear regression was calculated using GraphPad Prism 5.

CMKLR1 [3] = target: T1, CMKLR1; test: BRET-based arrestin 3 recruitment assay
Procedure: HEK293 cells were transiently transfected using 75 cm^2 cell culture flasks with cell monolayers (confluency of ˜80%). Plasmid DNA of the C-terminally eYFP tagged human CMKLR1 and the chimeric G protein GαΔ6qi4myr in a pVitro2 vector (7.8 μg) and Renilla-luciferase 8-tagged Arrestin 3 in pcDNA3 (0.2 μg) and 24 μl MetafectenePro were separately added to 900 μl DMEM/Ham's F12 and incubated for 10 min before unification and incubation at RT for 20 min. […] The plasmid solution was added and cells were incubated overnight before seeding. Cell seeding was carried out in white 96-well polystyrene cell culture microplates, coated with poly-D lysine. […] Afterwards, the cells were incubated overnight at 37° C. The assay was performed under unsterile conditions. […] Afterwards, the cells were stimulated with the peptides in different concentrations (10^−5 to 10^−12 M) dissolved in BRET buffer. 50 μl of the peptide dilution were used for cell stimulation. Buffer without peptide was used as a negative control. […] The values of the negative control were subtracted, non-linear regression was calculated using GraphPad Prism. […] All measurements were performed in four technical replicates, all experiments were repeated at least twice.
The bioluminescence resonance energy transfer (BRET) assay was used to determine the potency of cyclic chemerin variants to recruit arrestin 3 to the CMKLR1 receptor after stimulation. HEK293 cells were transiently transfected with CMKLR1 receptor fused with eYFP fluorophore and Arrestin 3 tagged with Rluc8 luciferase. The transfected cells were seeded, incubated with the luciferase substrate coelenterazine-h and stimulated with different peptide concentrations, resulting in measurable BRET signals.

half-life (in vitro) | arrestin 3 recruitment (CMKLR1 [1]) | receptor internalization (CMKLR1 [1]; compared to chemerin-9) | EC50 (CMKLR1 [2]) | arrestin 3 recruitment to the CMKLR1 (in words) (CMKLR1 [3]; BRET, compared with chemerin-9) | EC50 (CMKLR1 [3]; EC50, HEK293 cells, CMKLR1-eYFP and Rluc8-arrestin 3, 15 min after agonist addition) | Emax (CMKLR1 [3]; read-out: Emax [%] ± SEM) | Structure (SMILES)
< 12 min |  |  |  |  |  |  | C[C@H](NC(=O)[C@H](Cc1ccccc1)NC(=O)[C@H](CCC(N)=O)NC(=O)CNC(=O)[C@@H]1CCCN1C(=O)[C@H](Cc1ccccc1)NC(=O)[C@H](Cc1ccc(O)cc1)NC(=O)c1ccc(C(=O)O)c(-c2c3ccc(=[N+](C)C)cc-3oc3cc(N(C)C)ccc23)c1)C(=O)N[C@@H](Cc1ccccc1)C(=O)N[C@@H](CO)C(=O)O [$$ 2, Tam-chemerin-9]
 | good arrestin 3 recruitment | slightly lower receptor internalization | 193 nM | accepted | 418 nM | 69 ± 8% | C[C@@H]1NC(=O)[C@H](Cc2ccccc2)NC(=O)[C@H](CCC(N)=O)NC(=O)[C@H](NC(=O)[C@@H]2CCCN2C(=O)[C@H](Cc2ccccc2)NC(=O)[C@H](Cc2ccc(O)cc2)NC(=O)CCOCCOCCOCCOCCN)CCSSC[C@@H](C(=O)O)NC(=O)[C@H](Cc2c[nH]c3ccccc23)NC1=O [$$ 18, EG4-[x4,W8,C9]-chemerin-9] (H-[PEG4]YFP[d(hCys)]QFAWC-OH; disulfide 5-10)
